Consider 2 compounds from publication PMC11447181 (Nature Communications, 2024).

Several values for one entry are separate records, joined by “and”; a condition that tells them apart may be missing. Equal values may be shown once. Entries after “also recorded” stand apart in the source; their conditions may differ.

One series deals with SLC19A3. To be noted: cited from earlier work.
For series [1] the following is noted: clinical trial ID NCT01437787; cited from earlier work.
The target of series [2] is T1, hSLC19A3-wt overexpressed in Expi293F cells (Homo sapiens, UniProt Q9BZV2).
T1 construct: full-length, wildtype human SLC19A3; expressed in transfected cells; host or cells: Expi293F
Kind of series: Mass spectrometry-based cellular thiamine-d3 uptake assay. It is filed as cell-based. To be noted: 200 μM compound, 2 μM thiamine-d3, 5 min, n = 3. The method, then:
The cells were then pelleted for 5 min at 250×g and resuspended in 1×PBS (pH 7.4) at a cell density of 2 million cells per mL. The cell suspension was subsequently transferred to a 96-deep well plate in three technical replicates per condition (n = 3, 1 mL per well, corresponding to 2 million cells per condition). 200 μM of the selected compounds were added to the respective wells and the cells were incubated for 1 min on a shaking platform. […] Afterwards, the cells were pelleted for 5 min at 500×g and washed 3× with 1 mL 1×PBS (pH7.4), before transferring them to a fresh 96-deep well plate. The cell pellets were stored at –70 °C. For the LC-MS/MS analysis, the samples were extracted by adding 500 µL of a mixture of H2O:MeOH:ACN (1:1:1, v/v), containing 5% (v/v) formic acid. After vortexing and ultrasonication in a water bath for 5 min at 4 °C, samples were incubated for 20 min at –20 °C. […] The supernatants were then transferred for LC-MS analysis, which was initiated within one hour after sample preparation. LC-MS/MS analysis was performed on a Vanquish UHPLC system coupled to an Orbitrap Exploris 240 high-resolution mass spectrometer (Thermo Fisher Scientific, MA, USA) in positive ESI (electrospray ionization) mode. Chromatographic separation was carried out on an Atlantis Premier BEH Z-HILIC column (Waters, MA, USA; 2.1 mm × 100 mm, 1.7 µm) at a flow rate of 0.25 mL/min. The mobile phase consisted of water:acetonitrile (9:1, v/v; mobile phase phase A) and acetonitrile:water (9:1, v/v; mobile phase B), which were modified with a total buffer concentration of 10 mM ammonium formate. The aqueous portion of each mobile phase was adjusted to pH 3.0 via addition of formic acid. The following gradient (8 min total run time including re-equilibration) was applied (time [min]/%B): 0/90, 3/85, 3.5/60, 4/60, 5/90, 8/90. Column temperature was maintained at 40 °C, the autosampler was set to 4 °C and sample injection volume was set to 3 µL. Analytes were recorded via a full scan with a mass resolving power of 120,000 over a mass range from 60 to 900 m/z (scan time: 100 ms, RF lens: 70%).
All experimental samples were measured in a randomized manner. Pooled quality control (QC) samples were prepared by mixing equal aliquots from each processed sample. Multiple QCs were injected at the beginning of the analysis in order to equilibrate the analytical system. A QC sample was analyzed after every 6th experimental sample to monitor instrument performance throughout the sequence. For determination of background signals and subsequent background subtraction, an additional processed blank sample was recorded. Data was processed using TraceFinder 5.1 and raw peak area data was exported for relative metabolite quantification.

The next series addresses hSLC19A3 N297A (Homo sapiens, UniProt Q9BZV2, N297A). To be noted: N297A mutant. Here is the method:
(§1) The thermal stability of the hSLC19A3 constructs and their binding affinities for small molecules were determined by nanoDSF, using a Prometheus NT.48 (NanoTemper Technologies). For sample preparation, the protein was diluted to a final concentration of 4 μM in SEC buffer and supplied with the respective compounds in a concentration range from 2 μM to 2 mM. Before measurement, the samples were incubated for 30 min at room temperature. Melting scans were performed at a temperature range from 20 to 95 °C with a temperature increment of 1 °C per minute. Thermal unfolding curves were recorded by measuring the ratio of the tryptophan-fluorescence at 350 nm (F350) and 330 nm (F330). The protein melting temperature (Tm) of a given sample was determined as the inflection point of the thermal unfolding curves, or the local maximum of its first derivative. The measured curves were analysed using the manufacturer’s software (PR.ThermControl, v 2.1.2, NanoTemper Technologies). Based on the determined Tm values, ligand induced thermal shifts (ΔTm) were determined as the difference between the melting temperature of the ligand-bound state (Tm) and the apo state (Tm^apo).
As R, Tstd and L are known and the ΔTm and Tm^apo are experimentally determined, non-linear curve fitting can be used to estimate Ea1 and Kd,app. […]

A further series addresses T2, hSLC19A3-wt (Homo sapiens, UniProt Q9BZV2).
T2 construct: full-length, wildtype human SLC19A3; made in house; host or cells: Expi293F
Put plainly: nanoDSF thermal shift assay / apparent binding affinity, wildtype transporter. Background: Differential scanning fluorimetry follows unfolding on heating by fluorescence.

The next series concerns the target hSLC19A3-Glu32Lys (Homo sapiens, UniProt Q9BZV2, E32K). Put plainly: biochemical. Conditions: E32K mutant. Here is the method: as §1
(§2) As R, Tstd and L are known and the ΔTm and Tm^apo are experimentally determined, non-linear curve fitting can be used to estimate Ea1 and Kd,app. The fitting was performed using symfit (v. 0.5.3), as described in Kotov et al., based on theoretical considerations formulated in Hall, 2019[56].

The next series deals with hSLC19A3-Lys44Glu (Homo sapiens, UniProt Q9BZV2, K44E). Kind of series: biochemical. Here is the method:
as §1, §2

The next series has as its target hSLC19A3 Thr422Ala (Homo sapiens, UniProt Q9BZV2, T422A). Put plainly: biochemical. The method, then:
as §1, §2

A further series deals with hSLC19A3-E110Q (Homo sapiens, UniProt Q9BZV2, E110Q). Put plainly: biochemical. To be noted: Kd,app for thiamine, E110Q mutant; n = 3. The method, then:
as §1, §2

A further series concerns the target hSLC19A3 Y151A (Homo sapiens, UniProt Q9BZV2, Y151A). Put plainly: biochemical. The method, then: as §1, §2
Another series deals with hSLC19A3 W59A (Homo sapiens, UniProt Q9BZV2, W59A). Kind of series: biochemical. Here is the method: as §1, §2
The next series concerns the target hSLC19A3-Glu320Gln (Homo sapiens, UniProt Q9BZV2, E320Q). Kind of series: biochemical. The method, then:
as §1, §2

A further series addresses hSLC19A3 Y151F (Homo sapiens, UniProt Q9BZV2, Y151F). Kind of series: biochemical. Here is the method:
as §1, §2

The target in a further series is hSLC19A3 Y113A (Homo sapiens, UniProt Q9BZV2, Y113A). Put plainly: biochemical. Here is the method: as §1, §2
The target of a further series is hSLC19A3 Q300A (Homo sapiens, UniProt Q9BZV2, Q300A). Put plainly: biochemical. Here is the method:
as §1, §2

A further series deals with hSLC19A3 F56A (Homo sapiens, UniProt Q9BZV2, F56A). Put plainly: biochemical. Here is the method:
as §1, §2

Series [3] concerns the target hSLC19A3-gf (N45Q, N166Q) (Homo sapiens, UniProt Q9BZV2, N166Q/N45Q). Kind of series: biochemical. The method, then:
as §1, §2

The next series concerns OCT1 (SLC22A1). Conditions: read-out: Km (thiamine uptake); cited from earlier work.
Another series concerns MFSD1. To be noted: negative control; thiamine titration 1.95 μM to 2 mM. The method, then:
as §1

In a further series the test system is SLC19A2. To be noted: read-out: Km (thiamine uptake); cited from earlier work.

hSLC19A3-E110Q, sequence (Q9BZV2 with tags, fused parts or gaps E110Q): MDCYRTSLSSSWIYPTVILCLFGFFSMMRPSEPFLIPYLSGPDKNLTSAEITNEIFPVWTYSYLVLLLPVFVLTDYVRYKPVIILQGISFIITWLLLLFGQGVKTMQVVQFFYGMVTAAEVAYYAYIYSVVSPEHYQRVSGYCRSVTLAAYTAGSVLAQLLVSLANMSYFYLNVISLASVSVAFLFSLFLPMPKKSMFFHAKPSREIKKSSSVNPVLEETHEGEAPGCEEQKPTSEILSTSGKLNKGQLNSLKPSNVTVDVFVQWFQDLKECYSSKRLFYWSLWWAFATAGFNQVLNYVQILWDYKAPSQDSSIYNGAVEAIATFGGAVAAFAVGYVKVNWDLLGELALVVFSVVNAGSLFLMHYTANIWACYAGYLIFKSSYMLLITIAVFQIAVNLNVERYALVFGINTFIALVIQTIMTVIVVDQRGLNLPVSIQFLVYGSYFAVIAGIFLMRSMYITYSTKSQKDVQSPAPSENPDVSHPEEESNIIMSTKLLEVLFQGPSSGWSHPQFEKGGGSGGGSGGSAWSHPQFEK
T2 sequence (Q9BZV2 with tags, fused parts or gaps): as the sequence (Q9BZV2 with tags, fused parts or gaps E110Q) above, with Q110E counted along it
hSLC19A3-Glu32Lys, sequence (Q9BZV2 with tags, fused parts or gaps E32K): as the sequence (Q9BZV2 with tags, fused parts or gaps E110Q) above, with E32K, Q110E counted along it
hSLC19A3 Y151F, sequence (Q9BZV2 with tags, fused parts or gaps Y151F): as the sequence (Q9BZV2 with tags, fused parts or gaps E110Q) above, with Q110E, Y151F counted along it
hSLC19A3-Glu320Gln, sequence (Q9BZV2 with tags, fused parts or gaps E320Q): as the sequence (Q9BZV2 with tags, fused parts or gaps E110Q) above, with Q110E, E320Q counted along it
hSLC19A3-gf (N45Q, N166Q), sequence (Q9BZV2 with tags, fused parts or gaps N45Q/N166Q): as the sequence (Q9BZV2 with tags, fused parts or gaps E110Q) above, with N45Q, Q110E, N166Q counted along it
hSLC19A3 Y113A, sequence (Q9BZV2 with tags, fused parts or gaps Y113A): as the sequence (Q9BZV2 with tags, fused parts or gaps E110Q) above, with Q110E, Y113A counted along it
hSLC19A3 W59A, sequence (Q9BZV2 with tags, fused parts or gaps W59A): as the sequence (Q9BZV2 with tags, fused parts or gaps E110Q) above, with W59A, Q110E counted along it
hSLC19A3-Lys44Glu, sequence (Q9BZV2 with tags, fused parts or gaps K44E): as the sequence (Q9BZV2 with tags, fused parts or gaps E110Q) above, with K44E, Q110E counted along it
hSLC19A3 N297A, sequence (Q9BZV2 with tags, fused parts or gaps N297A): as the sequence (Q9BZV2 with tags, fused parts or gaps E110Q) above, with Q110E, N297A counted along it
hSLC19A3 Thr422Ala, sequence (Q9BZV2 with tags, fused parts or gaps T422A): as the sequence (Q9BZV2 with tags, fused parts or gaps E110Q) above, with Q110E, T422A counted along it
T1 sequence (Q9BZV2 with tags, fused parts or gaps): as the sequence (Q9BZV2 with tags, fused parts or gaps E110Q) above, with Q110E counted along it
hSLC19A3 F56A, sequence (Q9BZV2 with tags, fused parts or gaps F56A): as the sequence (Q9BZV2 with tags, fused parts or gaps E110Q) above, with F56A, Q110E counted along it
hSLC19A3 Y151A, sequence (Q9BZV2 with tags, fused parts or gaps Y151A): as the sequence (Q9BZV2 with tags, fused parts or gaps E110Q) above, with Q110E, Y151A counted along it
hSLC19A3 Q300A, sequence (Q9BZV2 with tags, fused parts or gaps Q300A): as the sequence (Q9BZV2 with tags, fused parts or gaps E110Q) above, with Q110E, Q300A counted along it

For the compound `Cc1cnc(Nc2ccc(OCCN3CCCC3)cc2)nc1Nc1cccc(S(=O)(=O)NC(C)(C)C)c1` [fedratinib], the “substrate status at the transporter” value in the series on SLC19A3 was “xenobiotic substrates of the transporter”. Further, in series [1], the “adverse event in patients” value is on record as “induced the development of Wernicke’s encephalopathy”. The “inhibition of thiamine uptake through hSLC19A3, in words” value in series [2] is given as “strongly suppressed the thiamine transport activity of hSLC19A3”.

In general, Km refers to the substrate concentration at which the rate is half of its maximum. As usually defined, the ΔTm is the change in melting temperature against a reference sample. `Cc1ncc(C[n+]2csc(CCO)c2C)c(N)n1` [thiamine]: the “loss in binding affinity for thiamine versus wildtype” value at hSLC19A3 N297A is on record as ~ 250 fold. Further, the values for the Km in the series on SLC19A3 (read-out: Km (thiamine uptake)), in the series with OCT1 (SLC22A1) and in the series with SLC19A2 were 2 to 7 µM, around 780 µM and 2 to 7 µM, respectively. Besides, the Kd was ~12 µM and 12.7 µM on hSLC19A3-wt (Kd,app (apparent dissociation constant), concentration-dependent thermal shifts, fitted for 25 °C, n = 3, mean ± s.d.); 145 µM at hSLC19A3-Glu32Lys (Kd,app for thiamine, n = 3); 2.1 ± 0.1 µM on hSLC19A3-Lys44Glu; 172 ± 35 µM on hSLC19A3 Thr422Ala; 85 µM and 85.2 µM and ~85 µM at hSLC19A3-E110Q; 17.8 ± 1.8 µM at hSLC19A3 Y151A. In addition, the Kd stood at 8.3 ± 1 µM on hSLC19A3 W59A; 284 ± 45 µM on hSLC19A3-Glu320Gln; 18.7 ± 9.1 µM on hSLC19A3 Y151F; 15.5 ± 2 µM on hSLC19A3 Y113A; 5.6 ± 1.4 µM at hSLC19A3 Q300A; 4 ± 0.3 µM on hSLC19A3 F56A. This compound also showed a Kd in series [3] of 10.4 ± 0.9 µM. The thermal shift (ΔTm) at 2000 µM on hSLC19A3-wt (read-out: ΔTm (thermal stabilisation of hSLC19A3)) was found to be 10.9 ± 0.3 °C. For the same compound, on hSLC19A3-wt (thermal shift screen at 20 μM and 200 μM compound), the “thermal shift / interaction with hSLC19A3, in words” value is “induces a strong stabilisation; also recorded: strong stabilisation of the transporter”. On hSLC19A3-Glu32Lys, the “drop in affinity for thiamine versus wildtype” value was 10 fold and > 10 fold. The “affinity for thiamine versus wildtype” value on hSLC19A3-Lys44Glu (K44E mutant) was “six-fold higher affinity”. In addition, the “effect of mutation on thiamine binding, in words” value at hSLC19A3 W59A (W59A mutant (aromatic clamp)) and at hSLC19A3 Y113A (Y113A mutant (aromatic clamp)) was “did not impair thiamine binding” in each case. Further, the “decrease in affinity for thiamine versus wildtype” value on hSLC19A3-Glu320Gln (E320Q mutant) came out at 20 fold. Moreover, the “effect of mutation on thiamine affinity, in words” value at hSLC19A3 Y151F (Y151F mutant) is on record as “no strong effect on the affinity for thiamine was observed”. For the same compound, the “effect of the glycosylation-site mutations on thiamine binding, in words” value in series [3] (thermal stability experiments) is on record as “did not show any interference of these mutations with thiamine binding”. Moreover, the “response to thiamine, in words” value with MFSD1 is “shows no response to thiamine”.
